Experimental data reported in patent US4041158A, “O-alkyl-0-[1-(3-nitrophenyl)-2-carbalkoxy-vinyl ]-thiono(thiol)-phosphoric (phosphonic) acid esters” (priority 1974, dated 1977).
Like-named read-outs stand apart in the source and are kept apart here.

Columns and labels:
Drosophila melanogaster = experiment: Drosophila test; format: in vivo; conditions: 24 h, after 1 day, read-out: Degree of destruction in % after 1 day; for mortality at 0.001 % strength: 0.001% by weight active compound; for mortality at 0.01 % strength: 0.01% by weight active compound
Protocol: Solvent: 3 parts by weight of dimethylformamide
(§1) Emulsifier: 1 part by weight of alkylaryl polyglycol ether
To produce a suitable preparation of active compound, 1 part by weight of the active compound was mixed with the stated amount of solvent containing the stated amount of emulsifier, and the concentrate was diluted with water to the desired concentration.
1 cm^3 of the preparation of the active compound was applied with a pipette to a filter paper disc of 7 cm diameter. The wet disc was placed over the orifice of a glass vessel containing 50 vinegar flies (Drosophila melanogaster) and covered with a glass plate.
After the specified periods of time, the destruction was determined in %. 100% means that all the flies were killed; 0% means that no flies were killed.

Laphygma exigua = experiment: Laphygma test; format: in vivo
Protocol: (§2) Solvent: 3 parts by weight of acetone
as §1
To produce a suitable preparation of active compound, 1 part by weight of the active compound was mixed with the stated amount of solvent and the stated amount of emulsifier and the concentrate was diluted with water to the desired concentration.
Cotton leaves (Gossypium hirsutum) were sprayed with the preparation of the active compound until dew-moist and were then infested with caterpillars of the owlet moth (Laphygma exigua).
After the specified periods of time, the destruction in % was determined.

Phaedon cochleariae = experiment: Phaedon larvae test (long-term action after spraying); format: in vivo; conditions: 0.05% active compound, Brassica oleracea
Protocol: as §2, §1
(§3) To produce a suitable preparation of active compound, 1 part by weight of the active compound was mixed with the stated amount of solvent containing the stated amount of emulsifier and the concentrate was diluted with water to the desired concentration.
(§4) Cabbage plants (Brassica oleracea), which were about 10-15 cm high, were sprayed with the preparation of the active compound until dripping wet.
After the specified periods of time, the plants were infested with mustard beetle larvae (Phaedon cochleariae). After intervals of 3 days, the destruction in % was determined. 100% means that all beetle larvae had been killed whereas 0% means that none of the beetle larvae had been killed.

insects and acarids = conditions: in vivo; cited from earlier work
Toxicity test/peroral = conditions: in vivo, po; albino rat, peroral; evaluation after 7 days
Protocol: Test animal: Albino rat (Rattus norvegicus)
To produce a suitable preparation of active compound, 3 parts by weight of active compound were mixed with 2.8 parts by weight of highly-dispersed silica and 4.2 parts by weight of talc. Suspensions which contain, in 1 ml of liquid, the amount of active compound to be applied per 100 g of animal weight, were prepared from the above active compound concentrate, with a little added powdered vegetable gum, by grinding with water. Dosing was effected volumetrically after weighing the test animals. A steel knob-ended probe was used for oral administration. The evaluation was carried out in each case after the end of the above-mentioned time interval, calculated from the administration of the active compound.
The LD50 values (dose of active compound at which 50% of the treated animals were killed) were determined in the usual manner from the mortality figures of the doses, which were varied in geometrical progression.

Lucilia cuprina = experiment: Test with parasitic fly larvae; format: in vivo; conditions: 24 hours, Lucilia cuprina res., read-out: Degree of destruction in %
Protocol: Solvent: 35 parts by weight of ethylene polyglycol monomethyl ether
35 parts by weight of nonylphenol polyglycol ether
To produce a suitable preparation of active compound, 30 parts by weight of the active substance in question were mixed with the stated amount of solvent which contained the abovementioned proportion of emulsifier and the concentrate thus obtained was diluted with water to the desired concentration.
About 20 fly larvae (Lucilia cuprina) were introduced into a test tube which contains approximately 2 cm^3 of horse muscle. 0.5 ml of the preparation of active compound was applied to this horse meat. After 24 hours, the degree of destruction in % was determined. 100% means that all larvae had been killed and 0% means that no larvae had been killed.

Myzus persicae = experiment: Myzus test (long-term action after spraying); format: in vivo; conditions: 0.05% active compound, Brassica oleracea
Protocol: as §2, §1, §3, §4
After the specified periods of time, the plants were infested with aphids (Myzus persicae). After intervals of 3 days, the destruction in % was determined. 100% means that all aphids had been killed whereas 0% means that none of the aphids had been killed.

[1] = 0.001% by weight active compound
[2] = 0.01% by weight active compound
[3] = 96 h, 4 days, read-out: % destruction after 4 days
[4] = 192 h, 8 days, read-out: % destruction after 8 days

## CCOC(=O)C=C(OP(=S)(OC)OC)c1ccc([N+](=O)[O-])cc1 [drawing 8, reference compound]
Drosophila melanogaster
  mortality at 0.001 % strength: 0%
  mortality at 0.01 % strength: 100%

## CCOC(=O)C=C(OP(=S)(OCC)OCC)c1cccc([N+](=O)[O-])c1 [drawing 14]
Laphygma exigua; [1]
  Degree of destruction in % after 3 days: 100%
Laphygma exigua; [2]
  Degree of destruction in % after 3 days: 100%

## CCCOP(=S)(OCC)OC(=CC(=O)OC(C)C)c1cccc([N+](=O)[O-])c1 (stereo not drawn)
Drosophila melanogaster
  mortality at 0.001 % strength: 98%
  mortality at 0.01 % strength: 100%

## CCOC(=O)C=C(OP(=S)(OCC)OCC)c1ccc([N+](=O)[O-])cc1 [drawing 20]
Phaedon cochleariae; [3]
  mortality at 0.05 % strength: 100%
Phaedon cochleariae; [4]
  mortality at 0.05 % strength: 100%
Phaedon cochleariae; 264 h, 11 days, read-out: % destruction after 11 days
  mortality at 0.05 % strength: 50%
Phaedon cochleariae; 360 h, 15 days, read-out: % destruction after 15 days
  mortality at 0.05 % strength: 0%

## CCOC(=O)C=C(OP(=S)(OCC)OCC)c1ccc([N+](=O)[O-])cc1 [Compound B, O,O-diethyl-O-[1-(4-nitrophenyl)-2-carbethoxyvinyl]-thionophosphoric acid ester]
Insects and acarids
  insecticidal and acaricidal properties: possess insecticidal and acaricidal properties

## CCOP(=S)(OCC)OC(=CC(=O)OC(C)C)c1cccc([N+](=O)[O-])c1 [drawing 19]
Laphygma exigua; [1]
  Degree of destruction in % after 3 days: 100%
Laphygma exigua; [2]
  Degree of destruction in % after 3 days: 100%

## CCCSP(=S)(OCC)OC(=CC(=O)OCC)c1cccc([N+](=O)[O-])c1 (stereo not drawn) [drawing 27]
Toxicity test/peroral
  LD50 at 168 h: 100 to 250 mg/kg

## CCOC(=O)C=C(OP(=S)(OCC)OCC)c1cccc([N+](=O)[O-])c1 [drawing 9]
Drosophila melanogaster
  mortality at 0.001 % strength: 99%
  mortality at 0.01 % strength: 100%

## CCOC(=O)C=C(OP(=S)(OCC)OCC)c1ccc([N+](=O)[O-])cc1 [drawing 31]
Lucilia cuprina
  mortality at 10 ppm: > 50%
  mortality at 100 ppm: 100%

## CCOC(=O)C=C(OP(=S)(OCC)OCC)c1ccc([N+](=O)[O-])cc1 [drawing 26, reference compound]
Toxicity test/peroral
  LD50 at 168 h: 10 to 25 mg/kg

## CCOC(=O)C=C(OP(=S)(OCC)OCC)c1ccc([N+](=O)[O-])cc1 [drawing 23]
Myzus persicae; [3]
  mortality at 0.05 % strength: 50%
Myzus persicae; [4]
  mortality at 0.05 % strength: 0%

## CCCSP(=S)(OCC)OC(=CC(=O)OCC)c1cccc([N+](=O)[O-])c1 (stereo not drawn) [drawing 30]
Lucilia cuprina
  mortality at 10 ppm: 100%
  mortality at 100 ppm: 100%
Lucilia cuprina; 30 ppm
  mortality at 30 ppm: 100%

## CCOC(=O)C=C(OP(=S)(OCC)c1ccccc1)c1cccc([N+](=O)[O-])c1 (stereo not drawn)
Toxicity test/peroral
  LD50 at 168 h: 50 to 100 mg/kg

## CCOC(=O)C=C(OP(=S)(OC)OC)c1ccc([N+](=O)[O-])cc1 [Compound A, O,O-dimethyl-O-[1-(4-nitrophenyl)-2-carbethoxyvinyl]-thionophosphoric acid ester]
Insects and acarids
  insecticidal and acaricidal properties: possess insecticidal and acaricidal properties

## CCOP(=S)(OCC)OC(=CC(=O)OC(C)C)c1cccc([N+](=O)[O-])c1 [drawing 10]
Drosophila melanogaster
  mortality at 0.001 % strength: 100%
  mortality at 0.01 % strength: 100%

## CCOC(=O)C=C(OP(=S)(OC)OC)c1cccc([N+](=O)[O-])c1
Laphygma exigua; [1]
  Degree of destruction in % after 3 days: 85%
Laphygma exigua; [2]
  Degree of destruction in % after 3 days: 100%

## CCCOP(=S)(OCC)OC(=CC(=O)OCC)c1cccc([N+](=O)[O-])c1 (stereo not drawn)
Toxicity test/peroral
  LD50 at 168 h: 50 to 100 mg/kg

## CCOC(=O)C=C(OP(=S)(OC)OC)c1ccc([N+](=O)[O-])cc1 [drawing 12, reference compound]
Laphygma exigua; [1]
  Degree of destruction in % after 3 days: 0%
Laphygma exigua; [2]
  Degree of destruction in % after 3 days: 100%
